Structures are written as SMILES.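 Cultured in 96-well plates, cells were exposed to test compound for 48 hours across five concentrations. GI50: concentration for 50% inhibition of growth. The concentration for full growth arrest is given as TGI.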 A value given as a limit tells only on which side of the number the result lay.

One assay relates to 786-0 renal. In words: DTP human tumour cell line panel, 48 h.
By TGI is commonly meant the concentration at which net growth stops. A higher TGI goes with lower sensitivity of the cells. Take `COC(=O)[C@]1(C)CCCC2(C)C1CC[C@H]1C=C(C)[C@H]3CCC12C3` (some centres not stated): the TGI is above 100 µM.
In general, GI50 refers to the concentration at which growth is held to half of that of the control. Regarding `O=c1[nH]c(=O)n(C2CC(O)C(CO)O2)cc1CO` (configuration not stated), the GI50 is 5.33 µM and the TGI is above 100 µM.
For `Cc1c(Cl)cccc1N1C(=O)C(Cl)=C(Cl)C1=O`, the TGI was above 100 µM.
`COc1ccc(NC(=O)/C(N=O)=C(/C)O)cc1`: the TGI was above 100 µM.
On to `COc1cccc(/C=N/[N-]C(=O)c2ccncc2)c1[O-].[Cu+2].[OH3+]`, for which the GI50 was 63.4 µM and the TGI is above 100 µM.
Turning to `CC(=O)OC12c3ccccc3-c3ccccc3C1C1C(=O)N(C)C(=O)C12Cl` (configuration not stated), the TGI was above 10 µM.
On the same count and under the same terms, with `COc1ccc(C(O)c2nccn2C)c(OC)c1` (configuration not stated) the figure was above 100 µM; with `O=c1c2ccccc2sc2cccc(NCCCN3CCN(CCCNc4cccc5sc6ccccc6c(=O)c45)CC3)c12`, above 100 µM; with `O=[N+]([O-])c1ccc(-n2nnc(C3=NCCN3)c2-c2ccc(Cl)cc2)cc1`, above 100 µM.
As to `CCSc1[nH]c(Nc2nc(-c3ccccc3)n(-c3ccccc3)n2)c(C(N)=O)c1C(N)=O`, the TGI is above 10 µM.
The molecule `CCOC(=O)C1(c2ccccc2)CCC(=O)CC1` registered a TGI above 100 µM.
Take `Cc1ccc(/C=C/c2c(C(=O)/C=C/c3ccc(C(F)(F)F)cc3)c(C)nc3ccccc23)cc1`: the GI50 is 1.7 µM and the TGI amounted to 3.18 µM.
The molecule `CC(=O)O[C@H]1CCC2[C@@H]3CCC4=C(O)c5nocc5C[C@]4(C)C3CC[C@@]21C` (some centres not stated) displayed a TGI above 100 µM.
Turning to `CCCCCCC[CH2][Sn]1([CH2]CCCCCCC)[O]C(=O)c2cccnc2[S]1`, the GI50 was above 100 µM and the TGI is above 100 µM.
For `Cc1ccc(S(=O)(=O)N/N=C/c2oc(-c3ccncc3)c(-c3ccncc3)c2[N+](=O)[O-])cc1`, the TGI is above 100 µM.
For `COc1ccccc1N1CCN(CCCn2c(=O)c3c(OC)nc(C)cc3c(=O)n2-c2ccccc2)CC1`, the GI50 is above 100 µM and the TGI was above 100 µM.
In turn, `CCc1cccc(C)c1NC(=O)C(=O)Cc1nc2ccccc2o1` registered a total growth inhibition concentration (TGI) above 100 µM.
With `O=C(O)[C@H](NS(=O)(=O)c1ccc2ccccc2c1)c1ccccc1`, the TGI is above 100 µM.
The same measure, in the same setting: the value for `O=C1c2ccccc2C2(O)c3cc4ccccc4cc3OC12O` (configuration not stated) was above 100 µM; that for `CN(C)c1c([O-])c(=[N+](C)C)c1=O` was above 100 µM.

A further assay deals with BT-549 breast. Nature of the assay: DTP human tumour cell line panel, 48 h.
Take `O=c1[nH]c(=O)n(C2CC(O)C(CO)O2)cc1CO` (configuration not stated): the GI50 was above 100 µM and the TGI is above 100 µM.
Molecule `COc1ccc(C(O)c2nccn2C)c(OC)c1` (configuration not stated) had a TGI above 100 µM.
Regarding `Cc1ccc(/C=C/c2c(C(=O)/C=C/c3ccc(C(F)(F)F)cc3)c(C)nc3ccccc23)cc1`, the GI50 was 1.58 µM and the TGI came to 3.34 µM.

The test system of the next assay is CAKI-1 renal. In words: DTP human tumour cell line panel, 48 h.
Consider `COC(=O)[C@]1(C)CCCC2(C)C1CC[C@H]1C=C(C)[C@H]3CCC12C3` (some centres not stated), for which the concentration for total growth inhibition (TGI) is above 100 µM.
On to `O=c1[nH]c(=O)n(C2CC(O)C(CO)O2)cc1CO` (configuration not stated), for which the GI50 is above 100 µM and the TGI was above 100 µM.
In turn, `Cc1c(Cl)cccc1N1C(=O)C(Cl)=C(Cl)C1=O` yielded a TGI above 80.9 µM.
For `COc1ccc(NC(=O)/C(N=O)=C(/C)O)cc1`, the TGI is above 100 µM.
Take `COc1cccc(/C=N/[N-]C(=O)c2ccncc2)c1[O-].[Cu+2].[OH3+]`: the GI50 was above 100 µM and the TGI was above 100 µM.
In turn, `CC(=O)OC12c3ccccc3-c3ccccc3C1C1C(=O)N(C)C(=O)C12Cl` (configuration not stated) registered a TGI above 10 µM.
`COc1ccc(C(O)c2nccn2C)c(OC)c1` (configuration not stated) gave a TGI above 100 µM.
`O=c1c2ccccc2sc2cccc(NCCCN3CCN(CCCNc4cccc5sc6ccccc6c(=O)c45)CC3)c12` displayed a TGI above 100 µM.
In turn, `O=[N+]([O-])c1ccc(-n2nnc(C3=NCCN3)c2-c2ccc(Cl)cc2)cc1` displayed a TGI above 100 µM.
The same measure, in the same setting: the value for `CCSc1[nH]c(Nc2nc(-c3ccccc3)n(-c3ccccc3)n2)c(C(N)=O)c1C(N)=O` was above 10 µM; that for `CCOC(=O)C1(c2ccccc2)CCC(=O)CC1` was above 100 µM.
On to `Cc1ccc(/C=C/c2c(C(=O)/C=C/c3ccc(C(F)(F)F)cc3)c(C)nc3ccccc23)cc1`, for which the GI50 is 1.11 µM and the TGI stood at 2.32 µM.
`CC(=O)O[C@H]1CCC2[C@@H]3CCC4=C(O)c5nocc5C[C@]4(C)C3CC[C@@]21C` (some centres not stated) registered a TGI above 100 µM.
`CCCCCCC[CH2][Sn]1([CH2]CCCCCCC)[O]C(=O)c2cccnc2[S]1`: the GI50 was above 100 µM and the TGI is above 100 µM.
With `Cc1ccc(S(=O)(=O)N/N=C/c2oc(-c3ccncc3)c(-c3ccncc3)c2[N+](=O)[O-])cc1`, the TGI is above 100 µM.
As for `COc1ccccc1N1CCN(CCCn2c(=O)c3c(OC)nc(C)cc3c(=O)n2-c2ccccc2)CC1`, the GI50 is above 100 µM and the concentration for total growth inhibition (TGI) was above 100 µM.
`CCc1cccc(C)c1NC(=O)C(=O)Cc1nc2ccccc2o1` displayed a TGI above 100 µM.
Molecule `O=C(O)[C@H](NS(=O)(=O)c1ccc2ccccc2c1)c1ccccc1` came in with a TGI above 100 µM.
The molecule `O=C1c2ccccc2C2(O)c3cc4ccccc4cc3OC12O` (configuration not stated) showed a TGI above 100 µM.
In the case of `CN(C)c1c([O-])c(=[N+](C)C)c1=O`, the concentration for total growth inhibition (TGI) is above 100 µM.

The next assay concerns CCRF-CEM leukemia. In words: DTP human tumour cell line panel, 48 h.
In turn, `COC(=O)[C@]1(C)CCCC2(C)C1CC[C@H]1C=C(C)[C@H]3CCC12C3` (some centres not stated) returned a TGI above 100 µM.
As to `O=c1[nH]c(=O)n(C2CC(O)C(CO)O2)cc1CO` (configuration not stated), the GI50 was above 100 µM and the TGI was above 100 µM.
Molecule `Cc1c(Cl)cccc1N1C(=O)C(Cl)=C(Cl)C1=O` registered a TGI of 27.8 µM.
`COc1ccc(NC(=O)/C(N=O)=C(/C)O)cc1` registered a TGI above 100 µM.
For `COc1cccc(/C=N/[N-]C(=O)c2ccncc2)c1[O-].[Cu+2].[OH3+]`, the GI50 is 27.9 µM and the TGI was above 100 µM.
On to `CC(=O)OC12c3ccccc3-c3ccccc3C1C1C(=O)N(C)C(=O)C12Cl` (configuration not stated), for which the TGI was above 10 µM.
Turning to `COc1ccc(C(O)c2nccn2C)c(OC)c1` (configuration not stated), the TGI was above 100 µM.
`O=c1c2ccccc2sc2cccc(NCCCN3CCN(CCCNc4cccc5sc6ccccc6c(=O)c45)CC3)c12`: the total growth inhibition concentration (TGI) was above 100 µM.
With `O=[N+]([O-])c1ccc(-n2nnc(C3=NCCN3)c2-c2ccc(Cl)cc2)cc1`, the concentration for total growth inhibition (TGI) is above 100 µM.
As for `CCSc1[nH]c(Nc2nc(-c3ccccc3)n(-c3ccccc3)n2)c(C(N)=O)c1C(N)=O`, the TGI is above 10 µM.
`CCOC(=O)C1(c2ccccc2)CCC(=O)CC1` gave a TGI above 100 µM.
Regarding `Cc1ccc(/C=C/c2c(C(=O)/C=C/c3ccc(C(F)(F)F)cc3)c(C)nc3ccccc23)cc1`, the concentration for 50% growth inhibition (GI50) is 0.411 µM and the TGI was above 100 µM.
The molecule `CC(=O)O[C@H]1CCC2[C@@H]3CCC4=C(O)c5nocc5C[C@]4(C)C3CC[C@@]21C` (some centres not stated) displayed a TGI above 100 µM.
Regarding `CCCCCCC[CH2][Sn]1([CH2]CCCCCCC)[O]C(=O)c2cccnc2[S]1`, the GI50 was above 100 µM and the TGI is above 100 µM.
The molecule `Cc1ccc(S(=O)(=O)N/N=C/c2oc(-c3ccncc3)c(-c3ccncc3)c2[N+](=O)[O-])cc1` registered a TGI above 100 µM.
Take `COc1ccccc1N1CCN(CCCn2c(=O)c3c(OC)nc(C)cc3c(=O)n2-c2ccccc2)CC1`: the GI50 was above 100 µM and the TGI was above 100 µM.
Turning to `CCc1cccc(C)c1NC(=O)C(=O)Cc1nc2ccccc2o1`, the TGI is above 100 µM.
`O=C(O)[C@H](NS(=O)(=O)c1ccc2ccccc2c1)c1ccccc1` returned a TGI above 100 µM.
Still for that read-out and setting: with `O=C1c2ccccc2C2(O)c3cc4ccccc4cc3OC12O` (configuration not stated) the figure was above 100 µM; with `CN(C)c1c([O-])c(=[N+](C)C)c1=O`, above 100 µM.

Another assay relates to LOX IMVI melanoma. Nature of the assay: DTP human tumour cell line panel, 48 h.
Turning to `COC(=O)[C@]1(C)CCCC2(C)C1CC[C@H]1C=C(C)[C@H]3CCC12C3` (some centres not stated), the TGI was above 100 µM.
Turning to `O=c1[nH]c(=O)n(C2CC(O)C(CO)O2)cc1CO` (configuration not stated), the GI50 is above 100 µM and the TGI is above 100 µM.
Regarding `Cc1c(Cl)cccc1N1C(=O)C(Cl)=C(Cl)C1=O`, the total growth inhibition concentration (TGI) was above 100 µM.
Still for that read-out and setting: the value for `COc1ccc(NC(=O)/C(N=O)=C(/C)O)cc1` was 47.9 µM.
For `COc1cccc(/C=N/[N-]C(=O)c2ccncc2)c1[O-].[Cu+2].[OH3+]`, the GI50 was above 100 µM and the total growth inhibition concentration (TGI) was above 100 µM.
In the case of `CC(=O)OC12c3ccccc3-c3ccccc3C1C1C(=O)N(C)C(=O)C12Cl` (configuration not stated), the TGI was above 10 µM.
The molecule `O=c1c2ccccc2sc2cccc(NCCCN3CCN(CCCNc4cccc5sc6ccccc6c(=O)c45)CC3)c12` came in with a TGI above 100 µM.
On the same count and under the same terms, the value for `O=[N+]([O-])c1ccc(-n2nnc(C3=NCCN3)c2-c2ccc(Cl)cc2)cc1` was above 100 µM; that for `CCSc1[nH]c(Nc2nc(-c3ccccc3)n(-c3ccccc3)n2)c(C(N)=O)c1C(N)=O` was above 10 µM.
`CCOC(=O)C1(c2ccccc2)CCC(=O)CC1` had a TGI above 100 µM.
As for `Cc1ccc(/C=C/c2c(C(=O)/C=C/c3ccc(C(F)(F)F)cc3)c(C)nc3ccccc23)cc1`, the GI50 was 1.12 µM and the TGI came to 2.33 µM.
Consider `CC(=O)O[C@H]1CCC2[C@@H]3CCC4=C(O)c5nocc5C[C@]4(C)C3CC[C@@]21C` (some centres not stated), for which the TGI was above 100 µM.
Turning to `CCCCCCC[CH2][Sn]1([CH2]CCCCCCC)[O]C(=O)c2cccnc2[S]1`, the GI50 was above 100 µM and the TGI is above 100 µM.
For `Cc1ccc(S(=O)(=O)N/N=C/c2oc(-c3ccncc3)c(-c3ccncc3)c2[N+](=O)[O-])cc1`, the TGI is above 100 µM.
Consider `COc1ccccc1N1CCN(CCCn2c(=O)c3c(OC)nc(C)cc3c(=O)n2-c2ccccc2)CC1`, for which the GI50 was above 100 µM and the concentration for total growth inhibition (TGI) is above 100 µM.
Regarding `CCc1cccc(C)c1NC(=O)C(=O)Cc1nc2ccccc2o1`, the TGI was above 100 µM.
The molecule `O=C(O)[C@H](NS(=O)(=O)c1ccc2ccccc2c1)c1ccccc1` gave a TGI above 100 µM.

Values taken from PubChem BioAssay (NCI).
